Reference: patent publication US10627412B2, “Periodontal-disease-specific peptide, and treatment and diagnosis of periodontal disease using same” (KAGOSHIMA UNIVERSITY, priority 2010, dated 2020)

What was measured:
[1] = tested on: lymphocytes obtained from these rats; experiment: Lymphoblast formation in cultured lymphocytes of injected rats; assay type: cell-based, rat
Procedure: (§1) PBS, full-length human Keratin 6 (FLK6) or peptide 1 (K6F) was administered by intragingival injection to the lower left jaw of rats. […] The lymphocytes obtained from these rats were stimulated with FLK6 or K6F and cultured. […] In addition, peripheral blood mononuclear leukocytes were obtained from these rats, stimulated with K6F or scramble peptide (Sc), and expression of RANKL and CD3 were examined by FACS analysis. […] Moreover, alveolar bone destruction in these rats was examined.

[2] = tested on: Lymphocytes obtained from periodontitis patients and healthy subjects (T cell proliferation); experiment: Drug-induced lymphocyte stimulation test (DLST); assay type: cell-based, human; details: for T cell proliferation induction potency in DLST: periodontitis patients as compared to healthy subjects
Excerpt: Lymphocytes obtained from periodontitis patients and healthy subjects were subjected to a drug-induced lymphocyte stimulation test (DLST) using full-length human Keratin 6 and peptide 1 (fragment thereof) (periodontitis patients: N=22, healthy subjects: N=5).

RANKL in lymphocytes = experiment: RANKL expression in stimulated lymphocytes, Western blot with anti RANKL antibody; assay type: cell-based, human
Procedure: Blood samples were collected from progressive (untreated) periodontitis patients, periodontitis patients during treatment and periodontitis patients after treatment to obtain lymphocytes, stimulated with full-length human Keratin 6 (K6; 2 or 4 μg/ml) or peptide 1 (K6F; 60 or 30 μg/ml), expression of RANKL in lymphocytes was examined by Western blot analysis using anti RANKL antibody. […] Fluorescent staining was performed to examine induction of lymphoblast formation by the stimulation with full-length human Keratin 6 or peptide 1. As a result, it was correlated well with the expression of RANKL mRNA (FIG. 8C).

[3] = tested on: Peripheral blood monocytes derived from severe periodontitis patients; experiment: Immunostaining of peripheral blood monocytes with anti-RANKL and anti-CD3 antibody; assay type: cell-based, human; details: stimulation of cells from severe periodontitis patients
Excerpt: Peripheral blood monocytes derived from severe periodontitis patients were stimulated with full-length human Keratin 6 (FL) or peptide 1 (K6F), and immunostained with anti-RANKL antibody and anti-CD3 antibody.

[4] = tested on: T cells obtained from peripheral blood of the periodontal disease patients; experiment: Pit formation assay on dentin section; assay type: cell-based, human; details: stimulation
[5] = tested on: RANKL mRNA in lymphocytes; experiment: RT-PCR of RANKL mRNA in lymphocytes of periodontitis patients; assay type: cell-based, human; details: stimulation of lymphocytes of periodontitis patients
rats = experiment: Intragingival injection to the lower left jaw of rats; assay type: in vivo, rat; details: for tumentia of lower jaw lymph node (Lt): injected left side, intragingival injection; for alveolar bone destruction: lower jaw of injected rats
Procedure: as §1

[6] = tested on: T cells obtained from peripheral blood of the periodontal disease patients; experiment: Differentiation of stimulated T cells into polynuclear giant cells, tissue staining; assay type: cell-based, human; details: stimulation
Excerpt: T cells obtained from peripheral blood of the periodontal disease patients and healthy subject were stimulated with full-length human Keratin 6 (FL) or peptide 1 (K6F), and differentiation into polynuclear giant cells was observed by tissue staining.

gingiva fibroblast (GF) = experiment: Binding of FITC-labeled peptide to various cells, confocal microscope; details: gingiva fibroblast compared to other cells
Excerpt: Various cells were stimulated with FITC-labeled peptide 1 (K6F, P-1), observed under a confocal microscope, and the binding level to K6F was shown by percentage higher than that of the control cell (FIG. 14).

[7] = tested on: MMP-2, MMP-3, MCP-1, IL-6, IL-8 in gingiva fibroblasts; experiment: Cytokine and chemokine expression in stimulated gingiva fibroblasts, Western blot; assay type: cell-based; details: stimulation 2-24 hr
Procedure: (§2) Gingiva fibroblasts were stimulated with peptide 1 (K6F), recombinant Keratin 6 (RK6, Rec-K6) or scramble peptide (Sc) for 2-24 hr, and the expression levels of MMP-2, MMP-3, MCP-1, IL-6, IL-8 were measured by Western blot analysis. […] Then, gingiva fibroblast (GF) and gingival epithelial cell (GEC) were stimulated with peptide 1 (K6F) or scramble peptide (Sc), respectively, for 15 min-2 hr, and phosphorylation of p38 in GF, as well as expression of IκB-α and phosphorylation of p65 NFκB and activation of representative serine/threonine kinase in GEC were examined.

[8] = tested on: p38 MAPK, IκB-α, p65 NFκB in gingiva fibroblast (GF); experiment: p38 MAPK, IκB-α and p65 NFκB signalling in stimulated gingiva fibroblast; assay type: cell-based; details: stimulation 15 min-2 hr
Procedure: as §2, with “as well as expression of IκB-α and phosphorylation of p65 NFκB and activation of representative” left out

[9] = tested on: peripheral blood mononuclear leukocytes; experiment: FACS analysis of RANKL and CD3 in peripheral blood mononuclear leukocytes of injected rats; assay type: cell-based, rat; details: in vitro stimulation of cells of rats injected with FL6 or K6F
Procedure: as §1

[10] = tested on: ERK and Akt in gingival epithelial cell (GEC); experiment: Activation of serine/threonine kinases in stimulated gingival epithelial cell; assay type: cell-based; details: stimulation 15 min-2 hr
Procedure: as §2

[11] = in vitro stimulation of lymphocytes of injected rats
[12] = lymphocytes of rats injected with the substance
[13] = lymphocytes of healthy subject (Non-PD) and periodontitis patients after treatment (Maintenance Phase)
[14] = lymphocytes of untreated periodontitis patients and patients during treatment, K6 2 or 4 μg/ml, K6F 60 or 30 μg/ml

Molecule | Lymphoblast formation [1, 11] | Lymphoblast formation [1, 12] | DLST positive samples (T cell proliferation induced) / samples tested ([2]; Healthy subject, N=5) | DLST positive samples (T cell proliferation induced) / samples tested ([2]; Periodontitis patients, N=22) | T cell proliferation induction potency in DLST [2] | expression of RANKL in lymphocytes (RANKL in lymphocytes; [13]) | expression of RANKL in lymphocytes (RANKL in lymphocytes; [14]) | CD positive cells (T cells) that express RANKL [3] | bone resorption pit formation [4] | expression of RANKL mRNA [5] | tumentia of lower jaw lymph node (Lt) (rats) | alveolar bone destruction (rats) | differentiation into polynuclear giant cells [6] | binding level to cells, percentage higher than that of the control cell (gingiva fibroblast (GF)) | expression levels of MMP-2, MMP-3, MCP-1, IL-6, IL-8 [7] | phosphorylation (activation) of p38 MAPK ([8]; GF) | degradation of IκB and activation of p65 NFκB [8] | expression of RANKL and CD3 [9] | activation of representative serine/threonine kinase [10]
YEELQITAGRHGDDLRNTK (listed as Homo sapiens) [peptide 1] | further enhanced lymphoblast formation | Lymphoblast formation was observed | 0/5 | 3/22 | remarkable T cell proliferation induction potency | not expressed | increased expression of RANKL | remarkably increased | formation of a marked bone resorption pit | tended to increase | tumentia of lower jaw lymph node | alveolar bone destruction was observed | remarkable differentiation into polynuclear giant cells | far higher binding level | remarkably increased expression | induced activation of p38 MAPK | did not induce degradation of IκB and activation of p65 NFκB | enhanced expression of RANKL and CD3 | induced activation of ERK and Akt
Full-length human Keratin 6: full-length human Keratin 6 protein, parental protein of peptide 1 (protein, UniProt P02538 1-564, looked up, full-length) MASTSTTIRSHSSSRRGFSANSARLPGVSRSGFSSVSVSRSRGSGGLGGACGGAGFGSRSLYGLGGSKRISIGGGSCAISGGYGSRAGGSYGFGGAGSGFGFGGGAGIGFGLGGGAGLAGGFGGPGFPVCPPGGIQEVTVNQSLLTPLNLQIDPTIQRVRAEEREQIKTLNNKFASFIDKVRFLEQQNKVLETKWTLLQEQGTKTVRQNLEPLFEQYINNLRRQLDSIVGERGRLDSELRGMQDLVEDFKNKYEDEINKRTAAENEFVTLKKDVDAAYMNKVELQAKADTLTDEINFLRALYDAELSQMQTHISDTSVVLSMDNNRNLDLDSIIAEVKAQYEEIAQRSRAEAESWYQTKYEELQVTAGRHGDDLRNTKQEIAEINRMIQRLRSEIDHVKKQCANLQAAIADAEQRGEMALKDAKNKLEGLEDALQKAKQDLARLLKEYQELMNVKLALDVEIATYRKLLEGEECRLNGEGVGQVNISVVQSTVSSGYGGASGVGSGLGLGGGSSYSYGSGLGVGGGFSSSSGRAIGGGLSSVGGGSSTIKYTTTSSSSRKSYKH | further enhanced lymphoblast formation | Lymphoblast formation was observed | 2/5 | 13/22 | remarkable T cell proliferation induction potency | not expressed | increased expression of RANKL | remarkably increased | formation of a marked bone resorption pit | tended to increase | tumentia of lower jaw lymph node | alveolar bone destruction was observed | remarkable differentiation into polynuclear giant cells | – | – | – | – | – | –
